Measurements published in PMC3573960 (Molecular Neurodegeneration, 2012).

Columns and labels:
[1] = MTS cytotoxicity assay in rat primary neocortical cultures; type: cell-based; conditions: CD, primary neocortical cultures from E17 rat embryos
Method: Primary cultures were established from the neocortex of E17 rat embryos obtained from timed pregnant CD rats (Charles River Laboratories, Wilmington, MA). Following tissue dissection and trituration, the cultures were suspended in Neurobasal™ medium (Invitrogen) supplemented with 10% horse serum (Sigma-Aldrich) and 520 μM L-glutamine. Cells were plated at 50,000 cells/well in Costar 96-well poly-D-lysine-coated plates. Following incubation at 37°C and 5% CO2 for 4–5 h, the plating medium was exchanged with Neurobasal® medium with 2% B-27® supplement (Invitrogen), 520 μM of L-glutamine, and 1% penicillin-streptomycin. […] Cultures were incubated with compound for 24 h for analysis of Aβ peptides by sandwich ELISA and cytotoxicity by MTS assay.

[2] = system: Aph1AL containing γ-secretase complexes; assay: Cell-free AICD production from APP β-CTF (Western blot); type: biochemical, murine; conditions: up to 100 μM
Method: DAPT was used as a reference positive control for the assay. For each assay condition, a 5-μL microsomal fraction, containing 1% CHAPSO (3-[(3-cholamidopropyl)dimethylammonio]-2-hydroxy-1-propanesulfonate) from murine embryonic fibroblasts (MEF) lacking the Aph-1A, Aph-1B, and Aph-1C genes (triple knock out) and rescued with Aph-1AL, was prepared in a reaction mixture of 5 μL substrate (recombinant APP β-CTF 3-Flag-tagged) at 0.8 μM, 0.0125% phosphatidylethanolamine, 0.1%, phosphatidylcholine, 0.05% sphingomyelin, and 8.9 μL PIPES (piperazine-N,N′-bis[−ethanesulfonic acid]) buffer. […] For detection of AICD, one-half of the reaction mixture was purified by a methanol-chloroform extraction in order to remove lipids and hydrophobic proteins (e.g., APP β-CTF). This purified fraction was further analyzed by SDS-PAGE and Western blotting. AICD was detected with an ANTI-FLAG® antibody (Sigma-Aldrich). The other half of the reaction mixture was used to analyze the levels of Aβ1-40 and Aβ1-42 by AlphaLisa (Perkin Elmer, Waltham, MA).

HEK293 cells = assay: CellTiter-Blue cell viability in HEK293 cells expressing NotchΔE; type: cell-based, human; conditions: up to 30 μM
[3] = Measurement of EVP-0015962 in brain (LC-MS/MS); type: in vivo, mouse; conditions: for range of brain concentrations: C57BL/6 mice, 3 or 7 days; for concentration at 50 weeks: male, mouse, brain (cerebellum), oral
Method: Mice were placed on the food formulations for 3 or 7 days and were euthanized, as described above, approximately 1 h after the onset of the light cycle.
Male Tg2576 and WT mice were both derived from crosses of male Tg2576 mice and female B6SJLF1 mice (Taconic) and were singly housed upon arrival. […] Some animals were euthanized as described above. For histological studies, a subset of mice were euthanized by CO2 asphyxiation and transcardially perfused with cold 0.9% NaCl. […] The left cerebral hemisphere was cut into 2 pieces, weighed, and frozen.
Cerebellums were homogenized in a Mini-BeadBeater (Biospec Products, Inc., Bartlesville, OK).

Tg2576 mice [4] = assay: Western blot of APP species and total Aβ in Tg2576 mouse brain; type: in vivo; conditions: 50 weeks
Method: For determination of APP α- and β-CTFs in Tg2576 mouse brain, hemisphere samples were thawed in ice-cold homogenization buffer (150 mg of tissue/mL, 50 mM Tris and 150 mM NaCl, pH 7.4) with protease inhibitor cocktail (Mini Complete™, Roche Applied Science, Penzberg, Germany). Homogenized samples were spun at 435,000 g for 50 min at 4°C. The supernatant was discarded and the pellet resuspended in the same volume of homogenization buffer containing 0.5% Triton®-X 100, 1% deoxycholate, and 3% SDS. The pellets were triturated with a pipette until resuspended and incubated on a rotator for 1 h at 4°C. The samples were then centrifuged at 435,000 g for 50 min at 4°C and the detergent-soluble supernatant was collected. Protein concentration for membrane (detergent soluble) fraction was determined using the BCA method (Pierce, Rockford, IL). Thirty micrograms of total protein were separated on a Tricine 10-20% gel (Invitrogen) and transferred to a nitrocellulose membrane. Blots were probed with an anti-APP-CTF antibody (Sigma-Aldrich) or anti-Aβ antibody (clone 6E10) followed by incubation with IRDye secondary antibodies (Li-Cor Biosciences).
Male Tg2576 and WT mice were both derived from crosses of male Tg2576 mice and female B6SJLF1 mice (Taconic) and were singly housed upon arrival. […] Some animals were euthanized as described above. For histological studies, a subset of mice were euthanized by CO2 asphyxiation and transcardially perfused with cold 0.9% NaCl. The right hemispheres were immersion fixed in fresh 4% paraformaldehyde in 0.1 M phosphate buffer, pH 7.4 for 1 h, transferred to a 15% sucrose cryoprotectant for 24 h at room temperature, and on the next day, frozen in isopentane chilled by dry ice for 1 min. The left cerebral hemisphere was cut into 2 pieces, weighed, and frozen.

Tg2576 mice [5] = assay: Contextual fear conditioning assay
Method: Animals in the food formulation groups were maintained on the compound formulated diets. The training session on day 1 consisted of the following sequence: 3 min acclimation to the test chamber (Kinder Scientific, Poway, CA), 2 s 1.5 mA foot shock, 2 min wait period, another 2 s 1.5 mA foot shock, followed by a final 1 min wait period. On day 2, testing consisted of returning the animals to the chamber for 5 min and the total time spent freezing was measured by an automated software system (Kinder Scientific). […] Percentage of time spent freezing for each mouse was calculated using the formula: (number of seconds with zero beam breaks/300) X 100.

[6] = MTS cytotoxicity assay in H4-APP751 cells; conditions: human
Method: Cytotoxicity was evaluated using CellTiter 96® AQueous One Solution Cell Proliferation Assay (MTS Assay, Promega, Madison, WI) according to the manufacturer’s protocol.

γ-secretase (NotchΔE) = assay: NICD production (S3 cleavage of NotchΔE) in transfected HEK293 cells; conditions: HEK293 cells expressing NotchΔE, 20 h, up to 30 μM
Method: HEK293 cells (700,000 cells per assay condition) were transiently transfected with a NotchΔE, myc-tagged construct to produce a truncated Notch1 substrate, which is constitutively cleaved by γ-secretase (S3 cleavage) [62]. Control transfections were performed with an empty vector. […] The amounts of NICD and total Notch were quantified and NICD was expressed as a percentage of total Notch. The DMSO control condition was set at 100%. Cell viability was determined using the CellTiter-Blue® Cell Viability Assay (Promega).

γ-secretase (EphA4) = assay: EphA4 CTF accumulation in rat primary neocortical cultures (Western blot); conditions: 24 h, up to 10 μM
Method: Protein concentration of the lysate was determined by the BCA method, and 30 μg of total protein were loaded on a 10% Bis-Tris gel (Invitrogen). EphA4 CTF was visualized using an anti-EphA4-CTF antibody (Abnova, Walnut, CA) and an IRDye800CW® secondary antibody (Rockland Immunochemicals, Inc., Gilbertsville, PA). Detection was performed using an Odyssey scanner (LiCor Biosciences) and blots quantified using ImageJ software (available at http://rsbweb.nih.gov/ij).

Tg2576 mice [7] = assay: Acute treatment study in Tg2576 mice, brain Aβ by ELISA after TBS extraction; conditions: 4 h
Method: Aβ peptide levels were quantified by sandwich ELISA. Plates were coated overnight at 4°C with either human anti-AβTotal (amino acids [aa] 27–37) or rodent anti-Aβ1-x (aa 1–8) rabbit polyclonal antibodies. For detection of Aβ38 and Aβ42, plates were coated with antibodies specific for the carboxyl-terminal neoepitope of each peptide. Antibodies were from Dr. Pankaj Mehta (Institute for Basic Research in Developmental Disabilities, Staten Island, NY) [58].
The 10 and 30 mg/kg doses were a solution and a suspension, respectively. […] After extraction of the brain, olfactory bulbs and hindbrain were removed and the cerebral hemispheres were cut into 4 pieces. […] All tissue samples were weighed, frozen in liquid nitrogen, and stored at −80°C until analysis.
In order to examine both soluble and insoluble pools of Aβ, sequential extraction of Tg2576 mouse brain samples was performed to produce 4 pools of Aβ, essentially as described elsewhere [37]. Briefly, brains were homogenized in 25 mM TBS, pH 7.4 with protease inhibitors (Mini Complete™) to release the soluble Aβ into the resulting supernatants after high speed ultracentrifugation. […] The extracted Aβ from each step was subjected to ELISA for human Aβ42, Aβ38, and AβTotal, as described above.

O=C(O)[C@H](CC1CCC1)c1cc(Cl)c(OCC(F)(F)F)c(-c2ccc(C(F)(F)F)cc2)c1 [EVP-0015962, (R)-2-(5-chloro-6-(2,2,2-trifluoroethoxy)-4’-(trifluoromethyl)biphenyl-3-yl)-3-cyclobutylpropanoic acid]
IC50 at 24 h [1]: > 30 µM | production of AICD from APP β-CTF [2]: did not prevent | cell viability (HEK293 cells): did not affect | range of brain concentrations ([3]; food formulation 20 mg/kg/day): 1.5 to 3.1 µM | range of brain concentrations ([3]; food formulation 60 mg/kg/day): 4.9 to 9.7 µM | accumulation or cytochrome P450 enzyme induction (from brain concentrations) ([3]; Tg2576 mice, 50 weeks vs short-term treatments): did not demonstrate accumulation or cytochrome P450 enzyme induction | concentration at 50 weeks ([3]; Tg2576 mice, 20 mg/kg/day in food): 2.5 ± 0.2 µM | concentration at 50 weeks ([3]; Tg2576 mice, 60 mg/kg/day in food): 8.3 ± 0.6 µM | oral bioavailability ([3]; mice): orally bioavailable | reduction in total Aβ by Western blot vs control diet (Tg2576 mice [4]; 20 mg/kg/day): 42% | reduction in total Aβ by Western blot vs control diet (Tg2576 mice [4]; 60 mg/kg/day): 81% | levels of full length APP, β-CTF, and α-CTF in brain (Tg2576 mice [4]; 20 or 60 mg/kg/day): no increases | genotype-associated deficit in percent freezing (CFC) (Tg2576 mice [5]; 20 or 60 mg/kg/day in food, 11 weeks (p < 0.01)): reversed | genotype-associated deficit in percent freezing (CFC) (Tg2576 mice [5]; single dose 30 mg/kg p.o., 3 h prior to training): did not reverse this deficit | IC50 [6]: 5.56 ± 0.51 µM | levels of NICD produced (γ-secretase (NotchΔE)): did not affect | EphA4 CTF accumulation (γ-secretase (EphA4)): did not result in EphA4 CTF accumulation | decrease in brain Aβ42 compared to vehicle-treated mice (Tg2576 mice [7]; 10 mg/kg p.o., TBS extraction (NS)): 22% | decrease in brain Aβ42 compared to vehicle-treated mice (Tg2576 mice [7]; 30 mg/kg p.o., TBS extraction (p < 0.05)): 39% | brain AβTotal (Tg2576 mice [7]; 10 or 30 mg/kg p.o.): remained unchanged
